US20250026769A1, “PAPD5 INHIBITORS AND METHODS OF USE THEREOF” (The Children's Medical Center Corporation, priority 2021, published 2025)
Where two headings read alike, the source gives them in different places.

Key:
[1] = test system: telomere length in DC patient iPSCs; assay: telomere length / telomere elongation in DC patient iPSCs; format: cell-based, human
In short: (§1)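 Activity binned by concentration giving effect in DC patient iPSCs: "+" at 1 μM, "++" above 1 nM and below 1 μM, "+++" below 1 nM; ND, not determined.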

[2] = test system: engraftment of CD45+, CD19+, CD34+ human blood cells; assay: engraftment of human blood cells in xenotransplanted mice by flow cytometry; format: in vivo, immunodeficient NBSGW mice with human HSPCs
Source text: (§2) Example 168—Restoration of TERC 3′ end processing in vivo in human blood cells after xenotransplantation into immunodeficient mice. To determine the efficacy of orally administered exemplified compounds in primary human HSPCs and blood cells in restoring TERC processing in vivo, highly-efficient CRISPR-Cas9 ribonucleoprotein transduction was employed to disrupt the PARN gene in primary human CD34+ HSPCs or the control locus AAVS1. These genome-edited human HSPCs were xenotransplanted into immunodeficient NOD,B6.SCID Il2rg−/− KitW4l/W41 (NBSGW) mice, which engraft human HSPCs without exposure to radiation or chemotherapy. Six to ten weeks after xenotransplantation, exemplified compounds were administered for 4 to 7 days alongside controls. Thereafter, human hematopoietic cells were recovered from mouse bone marrow, and engraftment was analyzed by flow cytometry. Engrafted human hematopoietic cells were sorted for lineage markers, and CD19+ cells were used for analysis of restoration of TERC 3′ end processing by RNA-ligation mediated 3′ RACE.

[3] = test system: TERC 3′ ends in human CD19+ cells recovered from mice xenotransplanted with HSPCs; assay: TERC 3′ end processing in vivo in human CD19+ cells after xenotransplantation into NBSGW mice; parameters: species or system immunodeficient NBSGW mice with human HSPCs
Source text: as §2

[4] = target: T1, rPAPD5 (Homo sapiens, UniProt Q8NDF8); assay: differential scanning fluorimetry (DSF) binding and stabilization of rPAPD5; conditions: for ΔTm at 100 µM: read-out: ΔTm at 100 μM
T1 construct: made in house
T1 sequence (Q8NDF8 68-698 isoform Q8NDF8-5 limits assumed): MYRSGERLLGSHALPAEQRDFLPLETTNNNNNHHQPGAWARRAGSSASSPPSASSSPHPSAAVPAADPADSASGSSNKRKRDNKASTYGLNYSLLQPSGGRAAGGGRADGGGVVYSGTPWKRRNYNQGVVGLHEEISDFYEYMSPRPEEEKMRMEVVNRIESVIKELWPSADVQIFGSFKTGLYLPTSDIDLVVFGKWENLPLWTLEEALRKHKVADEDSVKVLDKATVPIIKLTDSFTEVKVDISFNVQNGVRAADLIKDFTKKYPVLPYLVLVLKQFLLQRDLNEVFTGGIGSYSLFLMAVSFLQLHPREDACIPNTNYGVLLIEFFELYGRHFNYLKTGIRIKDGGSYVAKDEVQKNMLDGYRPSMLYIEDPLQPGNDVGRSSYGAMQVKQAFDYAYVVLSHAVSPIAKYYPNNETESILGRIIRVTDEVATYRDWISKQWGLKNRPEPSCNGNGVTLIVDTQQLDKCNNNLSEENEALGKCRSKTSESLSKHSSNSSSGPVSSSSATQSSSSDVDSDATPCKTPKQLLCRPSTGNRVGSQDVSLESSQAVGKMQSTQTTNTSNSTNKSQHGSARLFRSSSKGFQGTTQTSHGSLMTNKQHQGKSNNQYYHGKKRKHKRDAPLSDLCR
In short: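 Differential scanning fluorimetry was used to measure how test compounds bind and thermally stabilize rPAPD5. The reaction contained SYPRO orange dye diluted 1:5000 in […] of buffer with […], 25 mM Tris-HCl, 5 mM MgCl2 and 50 mM KCl. ΔTm was calculated relative to a DMSO control.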

[5] = test system: hepatitis B surface antigen (HBSAg) from HepG2.2.15 cells, a hepatitis B virus-expressing cell line; assay: HBsAg ELISA in supernatant of HepG2.2.15 cells; format: cell-based; conditions: HepG2.2.15, 96 h
In short: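 HepG2.2.15 cells plated at 50,000/well, then exposed the next day to 3-fold compound dilutions from 100 μM to 333 pM, with DMSO vehicle as control. After 4 days at 37 °C, HBsAg in the supernatant was measured by ELISA. IC50 obtained by nonlinear fitting of averaged replicates.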

[6] = test system: TERC 3′ end processing in primary CD34+ human hematopoietic stem and progenitor cells (HSPCs); assay: TERC 3′ end processing (RACE) in CRISPR/Cas9-engineered PARN-deficient primary CD34+ HSPCs; format: cell-based; conditions: for TERC 3′ end processing by RACE at 100 nM: day 5 (FIG. 40B); for TERC 3′ end processing by RACE at 1 μM: day 5 (FIG. 40A)
Source text: Example 167—Restoration of TERC 3′ end processing in primary CD34+ human hematopoietic stem and progenitor cells (HSPCs). To determine the efficacy of exemplified compounds in a disease-relevant stem cell population, we employed a highly-efficient CRISPR-Cas9 ribonucleoprotein transduction strategy to disrupt the PARN gene in primary human CD34+ hematopoietic stem and progenitor cells (HSPCs), or the control locus AAVS1. FIGS. 40A and 40B show extended TERC forms in CRISPR-Cas9 engineered HSPCs deficient in PARN.

[7] = test system: TERC 3′ end processing in DC patient iPSCs; assay: TERC 3′ end processing by RACE in DC patient / PARN-mutant iPSCs; format: cell-based, human
In short: as §1

Compound | minimal effective concentration ([1]; Homo sapiens, iPSC, patient iPSCs, concentration class at which activity is seen, read-out: iPSC-based Telomere length) [µM] | engraftment of CD45+, CD19+, CD34+ human blood cells ([2]; 1 mM in drinking water for 7 days) | TERC 3′ ends in human CD19+ cells (RACE) ([3]; 1 mM in drinking water for 7 days (FIG. 41C)) | ΔTm at 1 µM ([4]; 1 μM test compound (Table 2a), read-out: ΔTm at 1 μM) [°C] | ΔTm at 10 µM ([4]; 10 μM test compound (Table 2a), read-out: ΔTm at 10 μM) [°C] | ΔTm at 100 µM ([4]; 100 μM test compound, shift vs DMSO control) [°C] | IC50 [5] [nM] | TERC 3′ end processing by RACE at 100 nM [6] | TERC 3′ end processing by RACE at 1 μM [6] | minimal effective concentration ([7]; Homo sapiens, iPSC, patient iPSCs, concentration class at which activity is seen, read-out: iPSC-based RACE activity) [µM] | concentration at which telomere elongation was observed ([1]; DC patient iPSCs, after 3-4 weeks of cell culture) [nM] | engraftment of CD45+, CD19+, CD34+ human blood cells ([2]; 32 mg/kg/dose twice daily for 11 doses, with 250 μM in drinking water) | TERC 3′ ends in human CD19+ cells (RACE) ([3]; 32 mg/kg/dose twice daily for 11 doses, with 250 μM in drinking water (FIG. 41A)) | aberrant TERC oligo-adenylation in xenotransplanted PARN-deficient human blood cells ([3]; oral, 32 mg/kg/dose twice daily for 11 doses, with 250 μM in drinking water, RACE amplicon sequencing) | ΔTm at 100 µM [4] [°C] | concentration showing maturation of TERC 3′ end processing by RACE ([7]; DC patient iPSCs) [nM]
O=C(O)c1cc(Cl)ccc1Nc1c(N2CCOCC2)cnc2ccc(Cl)cc12 [Compound 339A, 5-chloro-2-[(6-chloro-3-morpholino-4-quinolyl)amino]benzoic acid] | < 0.001 | no change in engraftment | maturation of TERC 3′ ends | > 5 | > 5 | > 5 | 75 | maturation of TERC 3′ end processing | maturation of TERC 3′ end processing | < 0.001 |  |  |  |  |  | 
O=C(O)c1cc(Cl)ccc1Nc1c(C2CCOCC2)cnc2ccc(Cl)cc12 [Compound 296A, 5-chloro-2-[(6-chloro-3-tetrahydropyran-4-yl-4-quinolyl)amino]benzoic acid] |  |  |  |  |  |  | 5 | maturation of TERC 3′ end processing | maturation of TERC 3′ end processing |  | 1 | no change in engraftment | maturation of TERC 3′ ends | significantly reversed | > 5 | 1
